# Read-outs that look alike come from different tables or passages of the source.
# Tested on: patients with advanced TP53 wild-type (WT) leukemias
# [1] = All subjects N = 37, All Grades
smiles,measurement,setting,value
"COc1ncc(-c2nc3c(n2C(C)C)[C@H](c2ccc(Cl)cc2)N(c2cc(Cl)cn(C)c2=O)C3=O)c(OC)n1 [HDM201, (S)-5-(5-Chloro-1-methyl-2-oxo-1,2-dihydro-pyridin-3-yl)-6-(4-chloro-phenyl)-2-(2,4-dimethoxy-pyrimidin-5-yl)-1-isopropyl-5,6-dihydro-1H-pyrrolo[3,4-d]imidazol-4-one]",Cycle 1 DLTs,1A 350 mg (4 evaluable patients),0
same,Cycle 1 DLTs,1A 400 mg (9 evaluable patients),4
same,Cycle 1 DLTs,1A (d1 Q3W) 250 mg (3 evaluable patients),0
same,"Cycle 1 DLTs, Total","1A all doses, N = 16",4:
same,Cycle 1 DLTs,"1B (d1, d8 Q4W) 150 mg (6 evaluable patients)",1
same,Cycle 1 DLT events observed,"1B, N = 6",Acute Kidney Injury G4
same,Cycle 1 DLTs,2A 30 mg (3 evaluable patients),0
same,Cycle 1 DLTs,2A (2 weeks on/2 weeks off) 20 mg (3 evaluable patients),0
same,"Cycle 1 DLTs, Total","2A all doses, N = 6",0
same,Cycle 1 DLTs,2C (1 week on/3 weeks off) 45 mg (8 evaluable patients),1
same,Cycle 1 DLT events observed,"2C, N = 8",Tumor Lysis Syndrome G4
same,"Cycle 1 DLTs, Total","2C, N = 8",1
same,AE: Abdominal Discomfort,[1],1 (2.7) n (%)
same,AE: Abdominal Pain,[1],2 (5.4) n (%)
same,AE: Abdominal Pain Upper,[1],1 (2.7) n (%)
same,AE: Acute Kidney Injury,[1],3 (8.1) n (%)
same,AE: Amylase Increased,[1],3 (8.1) n (%)
same,AE: Anaemia,[1],16 (43.2) n (%)
same,AE: Arthralgia,[1],1 (2.7) n (%)
same,AE: Asthenia,[1],5 (13.5) n (%)
same,AE: Atrial Fibrillation,[1],2 (5.4) n (%)
same,AE: Atypical Pneumonia,[1],1 (2.7) n (%)
same,AE: Balanitis Candida,[1],1 (2.7) n (%)
same,AE: Blood Alkaline Phosphatase Increased,[1],1 (2.7) n (%)
same,AE: Blood Bilirubin Increased,[1],2 (5.4) n (%)
same,AE: Blood Creatinine Increased,[1],3 (8.1) n (%)
same,AE: Blood Phosphorus Increased,[1],3 (8.1) n (%)
same,AE: Blood Uric Acid Increased,[1],1 (2.7) n (%)
same,AE: Bone Marrow Failure,[1],1 (2.7) n (%)
same,AE: C-Reactive Protein Increased,[1],2 (5.4) n (%)
same,AE: Cardiac Failure,[1],1 (2.7) n (%)
same,AE: Cellulitis,[1],1 (2.7) n (%)
same,AE: Chronic Graft Versus Host Disease,[1],1 (2.7) n (%)
same,AE: Conjunctival Haemorrhage,[1],1 (2.7) n (%)
same,AE: Constipation,[1],2 (5.4) n (%)
same,AE: Cough,[1],1 (2.7) n (%)
same,AE: Cystitis Viral,[1],1 (2.7) n (%)
same,AE: Cytomegalovirus Infection,[1],1 (2.7) n (%)
same,AE: Decreased Appetite,[1],10 (27.0) n (%)
same,AE: Diarrhoea,[1],6 (16.2) n (%)
same,AE: Dyspepsia,[1],2 (5.4) n (%)
same,AE: Dyspnoea,[1],1 (2.7) n (%)
same,AE: Epistaxis,[1],1 (2.7) n (%)
same,AE: Fatigue,[1],6 (16.2) n (%)
same,AE: Febrile Neutropenia,[1],11 (29.7) n (%)
same,AE: Gamma-Glutamyltransferase Increased,[1],2 (5.4) n (%)
same,AE: General Physical Health Deterioration,[1],2 (5.4) n (%)
same,AE: Gingival Bleeding,[1],2 (5.4) n (%)
same,AE: Graft Versus Host Disease,[1],1 (2.7) n (%)
same,AE: Haemoglobin Decreased,[1],1 (2.7) n (%)
same,AE: Headache,[1],2 (5.4) n (%)
same,AE: Hyperbilirubinaemia,[1],3 (8.1) n (%)
same,AE: Hyperglycaemia,[1],1 (2.7) n (%)
same,AE: Hyperkalaemia,[1],1 (2.7) n (%)
same,AE: Hyperphosphataemia,[1],3 (8.1) n (%)
same,AE: Hyperuricaemia,[1],2 (5.4) n (%)
same,AE: Hypoalbuminaemia,[1],1 (2.7) n (%)
same,AE: Hypocalcaemia,[1],2 (5.4) n (%)
same,AE: Hypokalaemia,[1],1 (2.7) n (%)
same,AE: Hypomagnesaemia,[1],1 (2.7) n (%)
same,AE: Hyponatraemia,[1],2 (5.4) n (%)
same,AE: Hypophosphataemia,[1],2 (5.4) n (%)
same,AE: Hypotension,[1],1 (2.7) n (%)
same,AE: Infection,[1],1 (2.7) n (%)
same,AE: Infective Glossitis,[1],1 (2.7) n (%)
same,AE: Iron Overload,[1],1 (2.7) n (%)
same,AE: Leukopenia,[1],2 (5.4) n (%)
same,AE: Lip Oedema,[1],1 (2.7) n (%)
same,AE: Lipase Increased,[1],3 (8.1) n (%)
same,AE: Macular Oedema,[1],1 (2.7) n (%)
same,AE: Malaise,[1],2 (5.4) n (%)
same,AE: Mouth Haemorrhage,[1],2 (5.4) n (%)
same,AE: Nausea,[1],20 (54.1) n (%)
same,AE: Neutropenia/Neutrophil Count Decreased,[1],12 (32.4) n (%)
same,AE: Oedema,[1],1 (2.7) n (%)
same,AE: Oedema Peripheral,[1],1 (2.7) n (%)
same,AE: Oral Disorder,[1],1 (2.7) n (%)
same,AE: Pain In Extremity,[1],1 (2.7) n (%)
same,AE: Pancytopenia,[1],2 (5.4) n (%)
same,AE: Pneumonia,[1],1 (2.7) n (%)
same,AE: Pollakiuria,[1],1 (2.7) n (%)
same,AE: Pyrexia,[1],4 (10.8) n (%)
same,AE: Rash,[1],1 (2.7) n (%)
same,AE: Rash Erythematous,[1],1 (2.7) n (%)
same,AE: Rash Papular,[1],1 (2.7) n (%)
same,AE: Rectal Haemorrhage,[1],1 (2.7) n (%)
same,AE: Renal Failure,[1],1 (2.7) n (%)
same,AE: Skin Exfoliation,[1],1 (2.7) n (%)
same,AE: Stomatitis,[1],2 (5.4) n (%)
same,AE: Subarachnoid Haemorrhage,[1],1 (2.7) n (%)
same,AE: Thrombocytopenia/Platelet Count Decreased,[1],18 (48.6) n (%)
same,AE: Total,[1],33 (89.2) n (%)
same,AE: Tumour Lysis Syndrome,[1],9 (24.3) n (%)
same,AE: Vomiting,[1],7 (18.9) n (%)
same,AE: Weight Decreased,[1],1 (2.7) n (%)
same,AE: White Blood Cell Count Decreased,[1],4 (10.8) n (%)
same,AE: Abdominal Discomfort,"All subjects N = 37, Grade 3/4",0 n (%)
same,AE: Abdominal Pain,"All subjects N = 37, Grade 3/4",0 n (%)
same,AE: Abdominal Pain Upper,"All subjects N = 37, Grade 3/4",0 n (%)
same,AE: Acute Kidney Injury,"All subjects N = 37, Grade 3/4",1 (2.7) n (%)
same,AE: Amylase Increased,"All subjects N = 37, Grade 3/4",0 n (%)
same,AE: Anaemia,"All subjects N = 37, Grade 3/4",11 (29.7) n (%)
same,AE: Arthralgia,"All subjects N = 37, Grade 3/4",0 n (%)
same,AE: Asthenia,"All subjects N = 37, Grade 3/4",0 n (%)
same,AE: Atrial Fibrillation,"All subjects N = 37, Grade 3/4",0 n (%)
